One substance from paper PMC8011784, “Chronic peptide-based GIP receptor inhibition exhibits modest glucose metabolic changes in mice when administered either alone or combined with GLP-1 agonism” (PLoS ONE, 2021) can be followed below.

What all share (type): in vivo, mouse
The subject of test [1] is DIO mice. Briefly: Chronic GIPA-2 study: OGTT in DIO mice. The note with it: day 17; oral glucose 2 g/kg one hour after daily dose; liraglutide 0.2 mg/kg SC, GIPA-2 10 mg/kg SC; n = 10. As to the method:
For studying the chronic effects of GIPA-2, male C57BL/6JRj mice (n = 40) were fed a HFD (SSNIFF® diet #12492) for 43 weeks. DIO mice were randomized (n = 10 per group) based on baseline blood glucose and body weight. Liraglutide was dissolved in PBS plus 0.1% BSA (Vehicle1) and GIPA-2 in PBS (vehicle 2). Mice received one of the following four treatments daily for 28 days while still maintained on HFD: (1) vehicle 1 (SC) and vehicle 2 (SC); (2) 0.2 mg/kg liraglutide (SC) and vehicle 2; (3) vehicle 1 (SC) and 10 mg/kg GIPA-2 (SC); and (4) 0.2 mg/kg liraglutide (SC) plus 10 mg/kg GIPA-2 (SC). […] Fasted (4 hrs) blood glucose and insulin were measured on study day -4, 10 and 26. […] Blood glucose was measured before their daily dosing and at 0, 15, 30 60, 120, 180 and 240 min after glucose administration. […] Blood glucose was measured before their daily dosing and at 0, 15, 30 60, 120, 180 min after glucose administration. […]
(§1) Fig 3 Effects of GIPA-1 and GIPA-2 on oral glucose tolerance and insulin responses in DIO mice. […] Statistical analysis was calculated using two-way ANOVA with Tukey’s post-hoc test and one-way ANOVA with Dunnett’s post-hoc test. *: p< 0.05, **: p < 0.01, ***: p < 0.001, ****: p<0.0001 compared to vehicle.

For test [2], the system named is DIO mice. The experiment in a line: Chronic GIPA-1 study: OGTT and insulin responses in DIO mice. The note with it: n = 10. Here is the method:
(§2) 23-week-old male C57BL/6JRj mice (n = 40), fed a HFD (SSNIFF® diet #12492[60% fat, 20% protein, 20% carbohydrate]) for 14 weeks, were distributed into 4 test groups and received daily either vehicle, liraglutide (0.2 mg/kg/day), GIPA-1 (~4.5 mg/kg/day) or liraglutide + GIPA-1 for 4 weeks while still maintained on HFD. GIPA-1 was delivered using minipumps in order to achieve sufficient GIPR antagonism based on the properties of this peptide (Fig 2A). Liraglutide was dissolved in phosphate-buffered saline (PBS) plus 0.1% bovine serum albumin (BSA) (vehicle 1) and GIPA-1 in DMSO/propylene glycol (50/50 volume per volume) (vehicle 2). 100 μL minipumps (Alzet) were filled with GIPA-1 (30 mg/mL) or vehicle 2 and kept in 0.9% saline at 37°C overnight. The minipump was placed subcutaneously through a 1-cm long incision in the neck with the animal under isoflurane anesthesia. Animals were treated with analgesics on day 0–3 (NSAID, carprofen 50 mg/kg SC QD). […] Fasted (4 hrs) blood glucose and insulin levels were measured on study day -3, 14 and 27. […] Blood glucose was measured before their daily dosing and at 0, 15, 30 60, 120, 180 min after glucose administration. Plasma insulin was measured at 0 and 15 min. Whole body weight and food intake were measured throughout the study period. […]
as §1

In test [3] the test system is DIO mice. Briefly: Chronic GIPA-1 study: fasting blood glucose, plasma insulin and HOMA-IR in DIO mice. The note with it: 4 h fasted, liraglutide 0.2 mg/kg/day SC, GIPA-1 ~4.5 mg/kg/day minipump, n = 10, vs vehicle. As to the method: as §2, with “2).” for “2). 100 μL minipumps (Alzet) were filled with GIPA-1 (30 mg/mL) or vehicle 2 and kept in 0.9% saline at 37°C overnight. The minipump was placed subcutaneously through a 1-cm long incision in the neck with the animal under isoflurane anesthesia. Animals were treated with analgesics on day 0–3 (NSAID, carprofen 50 mg/kg SC QD).”
Fasting blood glucose was measured using a BIOSEN c-Line glucose meter (EKF-Diagnostics), insulin was measured using the Meso Scale Diagnostics platform, TG and TC were measured using commercial kits (Roche Diagnostics) on the Cobas C-501 autoanalyzer (Roche), and FFA levels were measured using a Wako Chemicals kit on the Cobas C-501 autoanalyzer, all according to the manufacturers’ instructions. […]

With liraglutide, the “glucose excursion in OGTT” value in test [1] is “beneficial glucose lowering effects of liraglutide”; in test [2] (day 21, oral glucose 2 g/kg, liraglutide 0.2 mg/kg SC, GIPA-1 ~4.5 mg/kg/day minipump), “beneficial glucose lowering effects of liraglutide”. Besides, the “insulin at time 0 of the OGTT” value in test [2] (day 21, fasted, GIPA-1 study) was “liraglutide-induced decrement in insulin at time 0 of the OGTT”. Besides, in test [2] (day 21, GIPA-1 study), the “baseline blood glucose (-30 min) of OGTT” value is “lower in the liraglutide group and in the combination group”. Besides, the fasting blood glucose result in test [3] (days 14 and 27) is on record as “significant reductions for the duration of the study”. In addition, in test [3], the fasting plasma insulin result was “reduced in both the liraglutide and combination groups. This was significant for the combination, but not for liraglutide monotherapy”.
